Here are results for 24 molecules from patent US7265152B2 (ViroPharma Incorporated, priority 2002, dated 2007).

As a reminder, the pIC50 is −log10 of the IC50, conventionally taken in molar units.

The test system of assay [1] is HCV replicon (BB7 sequence) in Huh-7-Clone A cells. Nature of the assay: HCV replicon assay: ELISA of NS5A protein in replicon-containing cells (Inhibition of Viral RNA Replication). Format: cell-based. Conditions: read-out: Replicon. Summed up:
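EC50 taken from an 8-point serially diluted dose curve, with NS5A level as read-out: fixed cells probed with primary monoclonal and HRP-conjugated secondary, TMB developed 30 min, OD 650 nm. Compound exposure 72 h in Huh-7-Clone A replicon cells (BB7 sequence).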
(In general: Replicon systems follow genome replication, usually without infectious particles.)

In the next assay the target is T1, HCV NS5B (Hepatitis C virus genotype 1b, UniProt Q9WMX2).
T1 construct: fusion protein, of which the carboxyl terminal 21 amino acids were removed to enhance its solubility; His tag (GSHHHHHH); made in house; host or cells: E. coli
Kind of assay: Inhibition of viral RNA-dependent RNA polymerase (RdRp), in vitro biochemical assay. On the set-up: species or system HCV genotype 1b virus (BB7). The note with it: read-out: HCV pol-BB7 IC50. Summed up:
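IC50 values are the concentrations that halve in vitro RNA synthesis by HCV NS5B polymerase. The enzyme was a C-terminally truncated (Δ21), His-tagged genotype 1b (BB7 consensus) protein purified from E. coli.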

The mark [2] stands for this setting: Hepatitis C virus, HCV replicon, range of EC50.
The mark [3] stands for this setting: HCV NS5B RdRp, BB7, reported as range class.
Setting [4] is: Hepatitis C virus, ranges of EC50 in HCV replicon assay.
[5] abbreviates: Hepatitis C virus, HCV replicon assay, ranges of EC50.
Where [6] appears, read: HCV NS5B RdRp, BB7, class symbols A-D.
The mark [7] stands for this setting: HCV NS5B RdRp, BB7, activity class.
[8] abbreviates: Hepatitis C virus, Huh-7-Clone A, NS5A ELISA, 72-hour incubation, ranges of EC50.
[9] abbreviates: purified His-tagged NS5B (BB7), carboxyl terminal 21 amino acids removed.
Setting [10] is: Hepatitis C virus, HCV replicon assay, ranges of 50% effective concentration (EC50).
[11] abbreviates: HCV NS5B polymerase, BB7 (genotype 1b), values given as range classes A-D.

pEC50, pIC50: −log10 of the molar value. Where two headings read alike, the source gives them in different places.

Take `CNC(=O)c1c(-c2ccc(F)cc2)oc2cc(S(=O)(=O)N3CCSCC3)c(OC(C)C)cc12` [Example 175, 2-(4-Fluoro-phenyl)-5-isopropoxy-6-(thiomorpholine-4-sulfonyl)-benzofuran-3-carboxylic acid methylamide]: in assay [1] (setting [2]), the pEC50 is above 6.00. Besides, the pIC50 at HCV NS5B (setting [3]) was at least 6.30.
Consider `CNC(=O)c1c(-c2ccc(F)cc2)oc2cc(N3CCOCC3)c(OCc3ccc(F)cc3)cc12` [Example 167, 5-(4-Fluoro-benzyloxy)-2-(4-fluoro-phenyl)-6-morpholin-4-yl-benzofuran-3-carboxylic acid methylamide], for which the pEC50 in assay [1] (setting [4]) was above 6.00. Moreover, at HCV NS5B (HCV NS5B RdRp, BB7 genotype 1b), the pIC50 was 5.30 to 6.30.
For `CNC(=O)c1c(-c2ccc(F)cc2)oc2cc(N(CC3CC3)S(C)(=O)=O)c(OC)cc12` [Example 330, 6-(Cyclopropylmethyl-methanesulfonyl-amino)-2-(4-fluoro-phenyl)-5-methoxy-benzofuran-3-carboxylic acid methylamide], the pEC50 in assay [1] (setting [5]) was above 6.00. Also, the pIC50 on HCV NS5B (setting [6]) is at least 6.30.
Taken in the same sequence, the figures for `CNC(=O)c1c(-c2ccc(F)cc2)oc2cc(N3CCOCC3)c(OCc3ccc(C(=O)OC)cc3)cc12` [Example 262, 4-[2-(4-Fluoro-phenyl)-3-methylcarbamoyl-6-morpholin-4-yl-benzofuran-5-yloxymethyl]-benzoic acid methyl ester] were above 5.00 and at least 6.30.
In the case of `CNC(=O)c1c(-c2ccc(F)cc2)oc2cc(N3CCOCC3)c(OC(C)c3nccs3)cc12` (stereo not drawn) [Example 254, 2-(4-Fluoro-phenyl)-6-morpholin-4-yl-5-(1-thiazol-2-yl-ethoxy)-benzofuran-3-carboxylic acid methylamide], the pEC50 in assay [1] (setting [5]) was above 6.00. The pIC50 on HCV NS5B (setting [6]) is at least 6.30.
Regarding `CNC(=O)c1c(-c2ccc(F)cc2)oc2cc(N(C)S(C)(=O)=O)c(OCC(=O)c3ccc(OC)cc3)cc12` [Example 355, 2-(4-Fluoro-phenyl)-6-(methanesulfonyl-methyl-amino)-5-[2-(4-methoxy-phenyl)-2-oxo-ethoxy]-benzofuran-3-carboxylic acid methylamide], the pEC50 in assay [1] (setting [5]) is above 6.00. On HCV NS5B (setting [7]), the pIC50 is at least 6.30.
`CNC(=O)c1c(-c2ccc(F)cc2)oc2cc(OC)c(OC)cc12` [Example 102, 2-(4-Fluoro-phenyl)-5,6-dimethoxy-benzofuran-3-carboxylic acid methylamide]: the pEC50 in assay [1] (setting [4]) was above 6.00. Besides, on HCV NS5B (HCV NS5B RdRp, BB7 genotype 1b), the pIC50 is at least 6.30.
`CNC(=O)c1c(-c2ccc(F)cc2)oc2cc(NCCOC)c(OC(C)C)cc12` [Example 8, 2-(4-Fluoro-phenyl)-5-isopropoxy-6-(2-methoxy-ethylamino)-benzofuran-3-carboxylic acid methylamide]: the pEC50 in assay [1] (setting [8]) is above 6.00. Moreover, on HCV NS5B (setting [9]), the pIC50 is at least 6.30.
Consider `CNC(=O)c1c(-c2ccc(F)cc2)oc2cc(N(C)S(C)(=O)=O)c(OCc3ccc(S(C)(=O)=O)cc3)cc12` [Example 353, 2-(4-Fluoro-phenyl)-5-(4-methanesulfonyl-benzyloxy)-6-(methanesulfonyl-methyl-amino)-benzofuran-3-carboxylic acid methylamide], for which, in assay [1] (setting [5]), the pEC50 was above 6.00. At HCV NS5B (setting [7]), the pIC50 is at least 6.30.
For the molecule `CNC(=O)c1c(-c2ccc(F)cc2)oc2cc(S(=O)(=O)N3CCC(O)CC3)c(OC(C)C)cc12` [Example 169, 2-(4-Fluoro-phenyl)-6-(4-hydroxy-piperidine-1-sulfonyl)-5-isopropoxy-benzofuran-3-carboxylic acid methylamide], the pEC50 in assay [1] (setting [4]) was above 6.00. Besides, the pIC50 at HCV NS5B (HCV NS5B RdRp, BB7 genotype 1b) was at least 6.30.
Consider `CNC(=O)c1c(-c2ccc(F)cc2)oc2cc(N3CCOCC3)c(OCCOC)cc12` [Example 226, 2-(4-Fluoro-phenyl)-5-(2-methoxy-ethoxy)-6-morpholin-4-yl-benzofuran-3-carboxylic acid methylamide], for which, in assay [1] (setting [2]), the pEC50 was above 6.00. The pIC50 at HCV NS5B (setting [3]) is at least 6.30.
In the case of `CNC(=O)c1c(-c2ccc(F)cc2)oc2cc(N(C)S(C)(=O)=O)c(OCc3ccccc3OC(F)F)cc12` [Example 347, 5-(2-Difluoromethoxy-benzyloxy)-2-(4-fluoro-phenyl)-6-(methanesulfonyl-methyl-amino)-benzofuran-3-carboxylic acid methylamide], the pEC50 in assay [1] (setting [5]) was above 6.00. Further, the pIC50 on HCV NS5B (setting [7]) is at least 6.30.
For `CNC(=O)c1c(-c2ccccc2)oc2cc(C)c(OC)cc12` [Example 14, 5-Methoxy-6-methyl-2-phenyl-benzofuran-3-carboxylic acid methylamide], in assay [1] (setting [8]), the pEC50 is above 6.00. For the same molecule, the pIC50 at HCV NS5B (setting [9]) is at least 6.30.
Taken in the same sequence, the figures for `CNC(=O)c1c(-c2ccc(Cl)c(F)c2)oc2ccc(OC)cc12` [Example 77, 2-(4-Chloro-3-fluoro-phenyl)-5-methoxy-benzofuran-3-carboxylic acid methylamide] were above 5.00 and at least 6.30.
Turning to `CNC(=O)c1c(-c2ccc(F)cc2)oc2cc(N(C)S(C)(=O)=O)c(OCc3nc(C(=O)O)cs3)cc12` [Example 393, 2-[2-(4-Fluoro-phenyl)-6-(methanesulfonyl-methyl-amino)-3-methylcarbamoyl-benzofuran-5-yloxymethyl]-thiazole-4-carboxylic acid], the pEC50 in assay [1] (setting [10]) is below 4.52. In addition, the pIC50 on HCV NS5B (setting [11]) is at least 6.30.
As to `CNC(=O)c1c(-c2ccc(F)cc2)oc2cc(Br)c(OC)cc12` [Example 13, 6-Bromo-2-(4-fluoro-phenyl)-5-methoxy-benzofuran-3-carboxylic acid methylamide], in assay [1] (setting [8]), the pEC50 was above 6.00. The pIC50 at HCV NS5B (setting [9]) was at least 6.30.
For `CNC(=O)c1c(-c2ccc(F)cc2)oc2cc(N(C)S(C)(=O)=O)c(OCc3ccc4c(c3)OC(C)(C)OC4=O)cc12` [Example 302, 5-(2,2-Dimethyl-4-oxo-4H-benzo[1,3]dioxin-7-ylmethoxy)-2-(4-fluoro-phenyl)-6-(methanesulfonyl-methyl-amino)-benzofuran-3-carboxylic acid methylamide], the pEC50 in assay [1] (setting [5]) is above 6.00. Further, the pIC50 on HCV NS5B (setting [6]) is at least 6.30.
For `CNC(=O)c1c(-c2ccc(F)cc2)oc2cc(N(C)S(C)(=O)=O)c(OCCN3CCOCC3)cc12` [Example 52, 2-(4-Fluoro-phenyl)-6-(methanesulfonyl-methyl-amino)-5-(2-morpholin-4-yl-ethoxy)-benzofuran-3-carboxylic acid methylamide], in assay [1] (setting [8]), the pEC50 was above 6.00. Moreover, the pIC50 at HCV NS5B (setting [9]) is at least 6.30.
Consider `CNC(=O)c1c(-c2ccc(F)cc2)oc2cc(CNS(C)(=O)=O)c(OC(C)C)cc12` [Example 162, 2-(4-Fluoro-phenyl)-5-isopropoxy-6-(methanesulfonylamino-methyl)-benzofuran-3-carboxylic acid methylamide], for which the pEC50 in assay [1] (setting [4]) was above 5.00. Also, the pIC50 at HCV NS5B (HCV NS5B RdRp, BB7 genotype 1b) was 5.30 to 6.30.
As to `CNC(=O)c1c(-c2ccc(O)cc2)oc2ccc(OC(C)C)cc12` [Example 5, 2-(4-Hydroxy-phenyl)-5-isopropoxy-benzofuran-3-carboxylic acid methylamide], the pEC50 in assay [1] (setting [8]) is above 5.00. Besides, the pIC50 on HCV NS5B (setting [9]) is 5.30 to 6.30.
As for `CNC(=O)c1c(-c2ccc(F)cc2)oc2cc(-c3c(C)noc3C)c(OCCN3CCC(C#N)CC3)cc12` [Example 419, 5-[2-(4-Cyano-piperidin-1-yl)-ethoxy]-6-(3,5-dimethyl-isoxazol-4-yl)-2-(4-fluoro-phenyl)-benzofuran-3-carboxylic acid methylamide], the pEC50 in assay [1] (setting [10]) was above 6.00. Further, the pIC50 on HCV NS5B (setting [11]) was at least 6.30.
Regarding “2-(4-Fluoro-phenyl)-6-(1H-imidazol-2-yl)-5-methoxy-benzofuran-3-carboxylic acid methylamide [Example 296]”, the pEC50 in assay [1] (HCV replicon assay, ranges of EC50) was above 6.00. Further, at HCV NS5B (setting [6]), the negative logarithm of the IC50 (pIC50) was at least 6.30.
For the molecule `CNC(=O)c1c(-c2ccc(F)cc2)oc2c(C)cc(OC(C)C)cc12` [Example 80, 2-(4-Fluoro-phenyl)-5-isopropoxy-7-methyl-benzufuran-3-carboxylic acid methylamide], the pEC50 in assay [1] (setting [8]) is above 4.52. In addition, at HCV NS5B (setting [9]), the pIC50 was 5.30 to 6.30.
In the case of `CNC(=O)c1c(-c2ccc(F)cc2)oc2cc(C(=O)CO)c(OC)cc12` [Example 436, 2-(4-Fluoro-phenyl)-6-(2-hydroxy-acetyl)-5-methoxy-benzofuran-3-carboxylic acid methylamide], the pEC50 in assay [1] (setting [10]) is above 5.00. For the same molecule, at HCV NS5B (setting [11]), the pIC50 was at least 6.30.
